# Source: patent US8802597B2, “Herbicidal pyrimidines” (E I du Pont de Nemours and Company, priority 2003, dated 2014)
# Columns and labels:
# Test in all cases: Test C pre/postemergence
# Type in all cases: in vivo
# [1] = tested on: Surinam grass (Brachiaria decumbens); conditions: for Surinam Grass plant response rating: scale 0 to 100 (0 no effect, 100 complete control)
# Summary of the method: (§1)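 Percent control is a visual rating (0 none, 100 complete) taken against untreated plants after 12 to 14 days of greenhouse growth. Applications were made preemergence to seeded pots and postemergence to plants at the 1- to 4-leaf stage, in a non-phytotoxic surfactant-containing solvent.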
# [2] = tested on: cocklebur (Xanthium strumarium); conditions: for Cocklebur plant response rating: scale 0 to 100 (0 no effect, 100 complete control)
# Summary of the method: as §1
# [3] = tested on: common (oilseed) sunflower (Helianthus annuus); conditions: Preemergence
# Summary of the method: as §1
# [4] = tested on: crabgrass (Digitaria sanguinalis); conditions: for Crabgrass plant response rating: scale 0 to 100 (0 no effect, 100 complete control)
# Summary of the method: as §1
# [5] = tested on: giant foxtail (Setaria faberii); conditions: for Foxtail, Giant plant response rating: scale 0 to 100 (0 no effect, 100 complete control)
# Summary of the method: as §1
# [6] = tested on: johnsongrass (Sorghum halepense); conditions: for Johnsongrass plant response rating: scale 0 to 100 (0 no effect, 100 complete control)
# Summary of the method: as §1
# [7] = tested on: kochia (Kochia scoparia); conditions: for Kochia plant response rating: scale 0 to 100 (0 no effect, 100 complete control)
# Summary of the method: as §1
# [8] = tested on: morningglory (Ipomoea coccinea); conditions: for Morningglory plant response rating: scale 0 to 100 (0 no effect, 100 complete control)
# Summary of the method: as §1
# [9] = tested on: pigweed (Amaranthus retroflexus); conditions: for Pigweed plant response rating: scale 0 to 100 (0 no effect, 100 complete control)
# Summary of the method: as §1
# [10] = tested on: velvetleaf (Abutilon theophrasti); conditions: for Velvetleaf plant response rating: scale 0 to 100 (0 no effect, 100 complete control)
# Summary of the method: as §1
# [11] = tested on: woolly cupgrass (Eriochloa villosa); conditions: for Cupgrass, Woolly plant response rating: scale 0 to 100 (0 no effect, 100 complete control)
# Summary of the method: as §1
# [12] = tested on: yellow nutsedge (Cyperus esculentus); conditions: for Nutsedge, Yellow plant response rating: scale 0 to 100 (0 no effect, 100 complete control)
# Summary of the method: as §1
# [13] = Postemergence, 250 g ai/ha, scale 0 to 100
# [14] = Postemergence, 500 g ai/ha, scale 0 to 100
# [15] = Preemergence, 62 g ai/ha, scale 0 to 100, 0 no effect, 100 complete control
# [16] = Preemergence, 125 g ai/ha, scale 0 to 100
# [17] = Preemergence, 250 g ai/ha, scale 0 to 100
# [18] = Preemergence, 500 g ai/ha, scale 0 to 100
# [19] = 62 g ai/ha, scale 0 to 100, 0 no effect, 100 complete control
# [20] = Preemergence, 31 g ai/ha, scale 0 to 100, 0 no effect, 100 complete control
compound,measurement,setting,value
COC(=O)c1nc(C2CC2C)nc(N)c1Br (stereo not drawn) [Compound 28],Surinam Grass plant response rating,"[1]; Postemergence, 62 g ai/ha",0
same,Surinam Grass plant response rating,"[1]; Postemergence, 125 g ai/ha",0
same,"Plant response rating, Surinam Grass",[1]; [13],0
same,"Plant response rating, Surinam Grass",[1]; [14],0
same,"Plant response rating, Surinam Grass",[1]; [15],0
same,"Plant response rating, Surinam Grass",[1]; [16],0
same,"Plant response rating, Surinam Grass",[1]; [17],0
same,"Plant response rating, Surinam Grass",[1]; [18],0
same,Cocklebur plant response rating,"[2]; Postemergence, 62 g ai/ha",85
same,Cocklebur plant response rating,"[2]; Postemergence, 125 g ai/ha",95
same,"Plant response rating, Cocklebur",[2]; [13],95
same,"Plant response rating, Cocklebur",[2]; [14],100
same,"Plant response rating, Cocklebur",[2]; [15],90
same,"Plant response rating, Cocklebur",[2]; [16],95
same,"Plant response rating, Cocklebur",[2]; [17],95
same,"Plant response rating, Cocklebur",[2]; [18],100
same,"Plant response rating, Sunflower",[3]; [19],45
same,"Plant response rating, Sunflower","[3]; 125 g ai/ha, scale 0 to 100",50
same,"Plant response rating, Sunflower","[3]; 250 g ai/ha, scale 0 to 100",100
same,"Plant response rating, Sunflower","[3]; 500 g ai/ha, scale 0 to 100",100
same,Crabgrass plant response rating,"[4]; Postemergence, 62 g ai/ha",0
same,Crabgrass plant response rating,"[4]; Postemergence, 125 g ai/ha",0
same,"Plant response rating, Crabgrass",[4]; [13],0
same,"Plant response rating, Crabgrass",[4]; [14],20
same,"Foxtail, Giant plant response rating","[5]; Postemergence, 62 g ai/ha",0
same,"Foxtail, Giant plant response rating","[5]; Postemergence, 125 g ai/ha",0
same,"Plant response rating, Foxtail, Giant",[5]; [13],0
same,"Plant response rating, Foxtail, Giant",[5]; [14],15
same,"Plant response rating, Foxtail, Giant",[5]; [15],0
same,"Plant response rating, Foxtail, Giant",[5]; [16],0
same,"Plant response rating, Foxtail, Giant",[5]; [17],0
same,"Plant response rating, Foxtail, Giant",[5]; [18],0
same,Johnsongrass plant response rating,"[6]; Postemergence, 62 g ai/ha",0
same,Johnsongrass plant response rating,"[6]; Postemergence, 125 g ai/ha",0
same,"Plant response rating, Johnsongrass",[6]; [13],0
same,"Plant response rating, Johnsongrass",[6]; [14],0
same,"Plant response rating, Johnsongrass",[6]; [17],0
same,Kochia plant response rating,"[7]; Postemergence, 62 g ai/ha",75
same,Kochia plant response rating,"[7]; Postemergence, 125 g ai/ha",85
same,"Plant response rating, Kochia",[7]; [13],95
same,"Plant response rating, Kochia",[7]; [14],95
same,"Plant response rating, Kochia",[7]; [15],0
same,"Plant response rating, Kochia",[7]; [16],80
same,"Plant response rating, Kochia",[7]; [17],90
same,"Plant response rating, Kochia",[7]; [18],100
same,Morningglory plant response rating,"[8]; Postemergence, 62 g ai/ha",80
same,Morningglory plant response rating,"[8]; Postemergence, 125 g ai/ha",95
same,"Plant response rating, Morningglory",[8]; [13],95
same,"Plant response rating, Morningglory",[8]; [14],95
same,"Plant response rating, Morningglory",[8]; [15],100
same,"Plant response rating, Morningglory",[8]; [16],100
same,"Plant response rating, Morningglory",[8]; [17],100
same,"Plant response rating, Morningglory",[8]; [18],100
same,Pigweed plant response rating,"[9]; Postemergence, 62 g ai/ha",30
same,Pigweed plant response rating,"[9]; Postemergence, 125 g ai/ha",35
same,"Plant response rating, Pigweed",[9]; [13],60
same,"Plant response rating, Pigweed",[9]; [14],75
same,"Plant response rating, Pigweed",[9]; [15],80
same,"Plant response rating, Pigweed",[9]; [16],95
same,"Plant response rating, Pigweed",[9]; [17],100
same,"Plant response rating, Pigweed",[9]; [18],100
same,Velvetleaf plant response rating,"[10]; Postemergence, 62 g ai/ha",45
same,Velvetleaf plant response rating,"[10]; Postemergence, 125 g ai/ha",50
same,"Plant response rating, Velvetleaf",[10]; [13],70
same,"Plant response rating, Velvetleaf",[10]; [14],75
same,"Plant response rating, Velvetleaf",[10]; [15],50
same,"Plant response rating, Velvetleaf",[10]; [16],55
same,"Plant response rating, Velvetleaf",[10]; [17],95
same,"Plant response rating, Velvetleaf",[10]; [18],100
same,"Cupgrass, Woolly plant response rating","[11]; Postemergence, 62 g ai/ha",0
same,"Cupgrass, Woolly plant response rating","[11]; Postemergence, 125 g ai/ha",0
same,"Plant response rating, Cupgrass, Woolly",[11]; [13],0
same,"Plant response rating, Cupgrass, Woolly",[11]; [14],0
same,"Plant response rating, Cupgrass, Woolly",[11]; [15],0
same,"Plant response rating, Cupgrass, Woolly",[11]; [16],0
same,"Plant response rating, Cupgrass, Woolly",[11]; [17],0
same,"Plant response rating, Cupgrass, Woolly",[11]; [18],0
same,"Nutsedge, Yellow plant response rating","[12]; Postemergence, 62 g ai/ha",0
same,"Nutsedge, Yellow plant response rating","[12]; Postemergence, 125 g ai/ha",0
same,"Plant response rating, Nutsedge, Yellow",[12]; [13],0
same,"Plant response rating, Nutsedge, Yellow",[12]; [14],0
same,"Plant response rating, Nutsedge, Yellow",[12]; [15],0
same,"Plant response rating, Nutsedge, Yellow",[12]; [16],0
same,"Plant response rating, Nutsedge, Yellow",[12]; [17],0
same,"Plant response rating, Nutsedge, Yellow",[12]; [18],0
CCOC(=O)Cc1nc(C2CC2)nc(N)c1Br [Compound 12],"Plant response rating, Surinam Grass",[1]; [20],0
same,"Plant response rating, Surinam Grass",[1]; [16],0
same,"Plant response rating, Surinam Grass",[1]; [17],0
same,"Plant response rating, Cocklebur",[2]; [20],50
same,"Plant response rating, Cocklebur",[2]; [15],50
same,"Plant response rating, Cocklebur",[2]; [16],85
same,"Plant response rating, Cocklebur",[2]; [17],90
same,"Plant response rating, Sunflower","[3]; 31 g ai/ha, scale 0 to 100, 0 no effect, 100 complete control",0
same,"Plant response rating, Sunflower",[3]; [19],0
same,"Plant response rating, Sunflower","[3]; 125 g ai/ha, scale 0 to 100",0
same,"Plant response rating, Sunflower","[3]; 250 g ai/ha, scale 0 to 100",85
same,"Plant response rating, Crabgrass",[4]; [20],0
same,"Plant response rating, Crabgrass",[4]; [15],0
same,"Plant response rating, Crabgrass",[4]; [16],0
same,"Plant response rating, Crabgrass",[4]; [17],0
same,"Plant response rating, Foxtail, Giant",[5]; [20],0
same,"Plant response rating, Foxtail, Giant",[5]; [15],0
same,"Plant response rating, Foxtail, Giant",[5]; [16],0
same,"Plant response rating, Foxtail, Giant",[5]; [17],0
same,"Plant response rating, Johnsongrass",[6]; [20],0
same,"Plant response rating, Johnsongrass",[6]; [15],0
same,"Plant response rating, Johnsongrass",[6]; [16],5
same,"Plant response rating, Johnsongrass",[6]; [17],5
same,"Plant response rating, Kochia",[7]; [20],0
same,"Plant response rating, Kochia",[7]; [15],50
same,"Plant response rating, Kochia",[7]; [16],50
same,"Plant response rating, Kochia",[7]; [17],85
same,"Plant response rating, Morningglory",[8]; [20],30
same,"Plant response rating, Morningglory",[8]; [15],60
same,"Plant response rating, Morningglory",[8]; [16],60
same,"Plant response rating, Morningglory",[8]; [17],90
same,"Plant response rating, Pigweed",[9]; [20],10
same,"Plant response rating, Pigweed",[9]; [15],50
same,"Plant response rating, Pigweed",[9]; [16],50
same,"Plant response rating, Pigweed",[9]; [17],85
same,"Plant response rating, Velvetleaf",[10]; [20],0
same,"Plant response rating, Velvetleaf",[10]; [15],5
same,"Plant response rating, Velvetleaf",[10]; [16],50
same,"Plant response rating, Velvetleaf",[10]; [17],70
same,"Plant response rating, Cupgrass, Woolly",[11]; [20],0
same,"Plant response rating, Cupgrass, Woolly",[11]; [15],0
same,"Plant response rating, Cupgrass, Woolly",[11]; [16],10
same,"Plant response rating, Cupgrass, Woolly",[11]; [17],100
same,"Plant response rating, Nutsedge, Yellow",[12]; [20],0
same,"Plant response rating, Nutsedge, Yellow",[12]; [15],0
same,"Plant response rating, Nutsedge, Yellow",[12]; [16],0
same,"Plant response rating, Nutsedge, Yellow",[12]; [17],0
